Laboratory results published in ChEMBL document CHEMBL1139189, “Preparation of novel antibacterial agents. Replacement of the central aromatic ring with heterocycles” (2007).
Converted amounts (≈) assume the structure as drawn.

Experiments:
Assay type in all cases: functional
Streptococcus pneumoniae = experiment: Antibacterial activity against Streptococcus pneumoniae UC 9912
Staphylococcus aureus [1] = experiment: Antibacterial activity against Staphylococcus aureus UC 9218
Haemophilus influenzae = experiment: Antibacterial activity against Haemophilus influenzae 30063
[2] = system: Staphylococcus epidermidis; experiment: Antibacterial activity against Staphylococcus epidermidis UC 12084
Enterococcus faecalis = experiment: Antibacterial activity against Enterococcus faecalis UC 9217
Staphylococcus aureus [3] = experiment: Antibacterial activity against Staphylococcus aureus UC 9218 in presence of 10% human serum
Staphylococcus aureus [4] = experiment: Antibacterial activity against Staphylococcus aureus UC 9218 in presence of 5% human serum

| SMILES | MIC (Streptococcus pneumoniae) [µg/mL] | MIC (Staphylococcus aureus [1]) [µg/mL] | MIC (Haemophilus influenzae) [µg/mL] | MIC [2] [µg/mL] | MIC (Enterococcus faecalis) [µg/mL] | MIC (Staphylococcus aureus [3]) [µg/mL] | MIC (Staphylococcus aureus [4]) [µg/mL] |
| --- | --- | --- | --- | --- | --- | --- | --- |
| CCCN(CCC)S(=O)(=O)c1ccc(C(=O)Oc2cc3ccccc3cc2C(=O)Oc2cc3ccccc3cc2C(=O)O)cc1 | 8 (≈ 12.8 µM) | 16 (≈ 25.6 µM) | > 128 | 16 (≈ 25.6 µM) | 32 (≈ 51.1 µM) | – | – |
| N#Cc1ccc(NC(=O)c2cnccn2)c(C(=O)O)c1 | – | 128 (≈ 477 µM) | – | – | – | > 128 | – |
| N#Cc1ccc(NC(=O)c2coc(-c3ccccc3)n2)c(C(=O)O)c1 | – | 64 (≈ 192 µM) | – | – | – | > 128 | – |
| N#Cc1ccc(NC(=O)c2nc(-c3ccccc3)cs2)c(C(=O)O)c1 | – | 8 (≈ 22.9 µM) | – | – | – | 32 | – |
| CCOc1nc(SCc2ccccc2)ncc1C(=O)Nc1ccc(C#N)cc1C(=O)O | – | 8 (≈ 18.4 µM) | – | – | – | > 128 | – |
| CN[C@H](CC(C)C)C(=O)N[C@H]1C(=O)N[C@@H](CC(N)=O)C(=O)N[C@H]2C(=O)N[C@H]3C(=O)N[C@H](C(=O)N[C@H](C(=O)O)c4cc(O)cc(O)c4-c4cc3ccc4O)[C@H](O)c3ccc(c(Cl)c3)Oc3cc2cc(c3O[C@@H]2O[C@H](CO)[C@@H](O)[C@H](O)[C@H]2O[C@H]2C[C@](C)(N)[C@H](O)[C@H](C)O2)Oc2ccc(cc2Cl)[C@H]1O [VANCOMYCIN] | 0.25 (≈ 0.173 µM) | – | 0.015 (≈ 0.0104 µM) | – | 1 (≈ 0.69 µM) | – | – |
| N#Cc1ccc(NC(=O)c2cc3cc(-c4ccccc4)oc3cn2)c(C(=O)O)c1 | – | > 128 | – | – | – | > 128 | – |
| CCCC(CCC)NS(=O)(=O)c1ccc(C(=O)Nc2cc3ccccc3cc2C(=O)O)cc1 | 64 (≈ 137 µM) | 64 (≈ 137 µM) | > 128 | 16 (≈ 34.1 µM) | 128 (≈ 273 µM) | – | > 128 |
| N#Cc1ccc(NC(=O)c2cc3cccnc3s2)c(C(=O)O)c1 | – | 4 (≈ 12.4 µM) | – | – | – | 32 | – |
| Cc1nn(-c2ccccc2)nc1C(=O)Nc1ccc(C#N)cc1C(=O)O | – | 4 (≈ 11.5 µM) | – | – | – | > 128 | – |
| Cc1coc2cnc(C(=O)Nc3ccc(C#N)cc3C(=O)O)cc12 | – | 16 (≈ 49.8 µM) | – | – | – | 64 | – |

The remaining compounds from weak to strong by MIC (Staphylococcus aureus [1]), led by results:

| MIC (Streptococcus pneumoniae) [µg/mL] | MIC (Staphylococcus aureus [1]) [µg/mL] | MIC (Haemophilus influenzae) [µg/mL] | MIC [2] [µg/mL] | MIC (Enterococcus faecalis) [µg/mL] | MIC (Staphylococcus aureus [3]) [µg/mL] | MIC (Staphylococcus aureus [4]) [µg/mL] | SMILES |
| --- | --- | --- | --- | --- | --- | --- | --- |
| – | 4 (≈ 12 µM) | – | – | – | 32 | – | N#Cc1ccc(NC(=O)c2noc(-c3ccccc3)n2)c(C(=O)O)c1 |
| – | 2 (≈ 6.55 µM) | – | – | – | 32 | – | N#Cc1ccc(NC(=O)c2cc3ccccc3[nH]2)c(C(=O)O)c1 |
| – | 2 (≈ 6.53 µM) | – | – | – | 32 | – | N#Cc1ccc(NC(=O)c2cc3ccccc3o2)c(C(=O)O)c1 |
| – | 1 (≈ 2.86 µM) | – | – | – | 16 | – | N#Cc1ccc(NC(=O)c2ncc(-c3ccccc3)s2)c(C(=O)O)c1 |
| – | 0.5 (≈ 1.3 µM) | – | – | – | 32 | – | N#Cc1ccc(NC(=O)c2nsc(-c3ccccc3)c2Cl)c(C(=O)O)c1 |
| – | 0.5 (≈ 1.5 µM) | – | – | – | 8 | – | N#Cc1ccc(NC(=O)c2cc(-c3ccccc3)no2)c(C(=O)O)c1 |
| 4 (≈ 7.47 µM) | 0.5 (≈ 0.933 µM) | 128 (≈ 239 µM) | 4 (≈ 7.47 µM) | 32 (≈ 59.7 µM) | – | > 128 | O=C(Nc1ccc(Br)cc1C(=O)O)c1ccc(S(=O)(=O)N2CCc3cc(Cl)ccc32)cc1 |
| – | 0.5 (≈ 1.63 µM) | – | – | – | 16 | – | N#Cc1ccc(NC(=O)c2noc3ccccc23)c(C(=O)O)c1 |
| – | 0.5 (≈ 1.5 µM) | – | – | – | 8 | – | N#Cc1ccc(NC(=O)c2ncc(-c3ccccc3)o2)c(C(=O)O)c1 |
| – | 0.25 (≈ 0.75 µM) | – | – | – | 8 | – | N#Cc1ccc(NC(=O)c2cc(-c3ccccc3)on2)c(C(=O)O)c1 |
| – | 0.25 (≈ 0.773 µM) | – | – | – | 8 | – | N#Cc1ccc(NC(=O)c2nc3ccccc3s2)c(C(=O)O)c1 |
| > 128 | 0.125 (≈ 0.329 µM) | – | 0.125 (≈ 0.329 µM) | > 128 | 4 | – | N#Cc1ccc(NC(=O)c2cc(SCc3ccccc3)on2)c(C(=O)O)c1 |
